Measured values taken from ChEMBL document CHEMBL2069225, “Design, synthesis and molecular docking studies of sinomenine derivatives” (Bioorg Med Chem Lett, 2012).

These compounds were tested on RAW264.7 (assay: Inhibition of NFkappaB in LPS-challenged mouse RAW264.7 cells assessed as ratio of NFkappaB transcriptional activity to thymidine kinase transcriptional activity at 100 uM incubated for 30 mins prior to LPS-challenge measured after 6 hrs by dual luciferase reporter gene assay (reference value: 5.18+/-0.98)).
Assay type: cell-based

Row | Structure (SMILES) | Ratio
1 | COC1=C[C@@H]2[C@@H]3Cc4ccc(OC)c(OCc5cn(Cc6ccc(C)cc6)nn5)c4[C@]2(CCN3C)CC1=O | 3.37
2 | COC1=C[C@@H]2[C@@H]3Cc4ccc(OC)c(OCc5ccc(OC)cc5)c4[C@]2(CCN3C)CC1=O | 4.85
3 | COC1=C[C@@H]2[C@@H]3Cc4ccc(OC)c(OCc5cccc(C#N)c5)c4[C@]2(CCN3C)CC1=O | 4.28
4 | COC1=C[C@@H]2[C@@H]3Cc4ccc(OC)c(OCc5cn(Cc6ccccc6F)nn5)c4[C@]2(CCN3C)CC1=O | 3.13
5 | COC1=C[C@@H]2[C@@H]3Cc4ccc(OC)c(OCc5cn(Cc6ccc(Br)cc6)nn5)c4[C@]2(CCN3C)CC1=O | 4.19
6 | COC1=C[C@@H]2[C@@H]3Cc4ccc(OC)c(OCc5ccc(F)cc5)c4[C@]2(CCN3C)CC1=O | 4.22
7 | COC1=C[C@@H]2[C@@H]3Cc4ccc(OC)c(OCc5cn(Cc6c(Cl)cccc6Cl)nn5)c4[C@]2(CCN3C)CC1=O | 3.44
8 | COC1=C[C@@H]2[C@@H]3Cc4ccc(OC)c(OCc5cn(Cc6ccccc6Br)nn5)c4[C@]2(CCN3C)CC1=O | 2.08
9 | COC1=C[C@@H]2[C@@H]3Cc4ccc(OC)c(OCc5ccccc5C#N)c4[C@]2(CCN3C)CC1=O | 5.09
10 | COC1=C[C@@H]2[C@@H]3Cc4ccc(OC)c(OCc5cn(Cc6ccccc6)nn5)c4[C@]2(CCN3C)CC1=O | 1.8
11 | COC1=C[C@@H]2[C@@H]3Cc4ccc(OC)c(OCc5cn(Cc6cccc(Cl)c6)nn5)c4[C@]2(CCN3C)CC1=O | 2.88
12 | COC1=C[C@@H]2[C@@H]3Cc4ccc(OC)c(OCc5cn(Cc6ccc([N+](=O)[O-])cc6)nn5)c4[C@]2(CCN3C)CC1=O | 3.63
13 | COC1=C[C@@H]2[C@@H]3Cc4ccc(OC)c(OCc5cccc([N+](=O)[O-])c5)c4[C@]2(CCN3C)CC1=O | 4.18
14 | COC1=C[C@@H]2[C@@H]3Cc4ccc(OC)c(OCc5cn(Cc6ccccc6C#N)nn5)c4[C@]2(CCN3C)CC1=O | 1.96
15 | COC1=C[C@@H]2[C@@H]3Cc4ccc(OC)c(OCc5cn(Cc6cccc(C#N)c6)nn5)c4[C@]2(CCN3C)CC1=O | 2.86
16 | COC1=C[C@@H]2[C@@H]3Cc4ccc(OC)c(OCc5ccc(Br)cc5)c4[C@]2(CCN3C)CC1=O | 4.82
17 | COC1=C[C@@H]2[C@@H]3Cc4ccc(OC)c(OCc5cn(Cc6ccc(F)cc6)nn5)c4[C@]2(CCN3C)CC1=O | 1.98
18 | COC1=C[C@@H]2[C@@H]3Cc4ccc(OC)c(OCc5ccccc5F)c4[C@]2(CCN3C)CC1=O | 4.71
19 | COC1=C[C@@H]2[C@@H]3Cc4ccc(OC)c(OCc5cn(Cc6cccc(F)c6)nn5)c4[C@]2(CCN3C)CC1=O | 3.04
20 | COC1=C[C@@H]2[C@@H]3Cc4ccc(OC)c(O)c4[C@]2(CCN3C)CC1=O | 4.41

Row | Structure (SMILES) | Ratio
21 | COC1=C[C@@H]2[C@@H]3Cc4ccc(OC)c(OCc5cn(Cc6cccc([N+](=O)[O-])c6)nn5)c4[C@]2(CCN3C)CC1=O | 3.17
22 | COC1=C[C@@H]2[C@@H]3Cc4ccc(OC)c(OCc5cn(Cc6ccc(Cl)cc6)nn5)c4[C@]2(CCN3C)CC1=O | 2.22
23 | COC1=C[C@@H]2[C@@H]3Cc4ccc(OC)c(OCc5cccc(F)c5)c4[C@]2(CCN3C)CC1=O | 4.53
24 | COC1=C[C@@H]2[C@@H]3Cc4ccc(OC)c(OCc5cn(Cc6cccc(Br)c6)nn5)c4[C@]2(CCN3C)CC1=O | 2.46
25 | COC1=C[C@@H]2[C@@H]3Cc4ccc(OC)c(OCc5cn(Cc6ccc(Cl)cc6Cl)nn5)c4[C@]2(CCN3C)CC1=O | 2.74
26 | COC1=C[C@@H]2[C@@H]3Cc4ccc(OC)c(OCc5ccccc5[N+](=O)[O-])c4[C@]2(CCN3C)CC1=O | 4.7
27 | COC1=C[C@@H]2[C@@H]3Cc4ccc(OC)c(OCc5ccccc5Br)c4[C@]2(CCN3C)CC1=O | 5.03
28 | COC1=C[C@@H]2[C@@H]3Cc4ccc(OC)c(OCc5ccc(C)cc5)c4[C@]2(CCN3C)CC1=O | 5.24
29 | COC1=C[C@@H]2[C@@H]3Cc4ccc(OC)c(OCc5cccc(Br)c5)c4[C@]2(CCN3C)CC1=O | 4.51
30 | COC1=C[C@@H]2[C@@H]3Cc4ccc(OC)c(OCc5cccc(C)c5)c4[C@]2(CCN3C)CC1=O | 4.71
31 | COC1=C[C@@H]2[C@@H]3Cc4ccc(OC)c(OCc5cn(Cc6cccc(C)c6)nn5)c4[C@]2(CCN3C)CC1=O | 2.98
32 | COC1=C[C@@H]2[C@@H]3Cc4ccc(OC)c(OCc5cn(Cc6ccccc6[N+](=O)[O-])nn5)c4[C@]2(CCN3C)CC1=O | 2.32
33 | COC1=C[C@@H]2[C@@H]3Cc4ccc(OC)c(OCc5cn(Cc6ccc(C(C)(C)C)cc6)nn5)c4[C@]2(CCN3C)CC1=O | 3.26
34 | COC1=C[C@@H]2[C@@H]3Cc4ccc(OC)c(OCc5ccccc5C)c4[C@]2(CCN3C)CC1=O | 4.91
35 | COC1=C[C@@H]2[C@@H]3Cc4ccc(OC)c(OCc5cn(Cc6ccc(C#N)cc6)nn5)c4[C@]2(CCN3C)CC1=O | 3.61
36 | COC1=C[C@@H]2[C@@H]3Cc4ccc(OC)c(OCc5cn(Cc6ccccc6C)nn5)c4[C@]2(CCN3C)CC1=O | 3
37 | COC1=C[C@@H]2[C@@H]3Cc4ccc(OC)c(OCc5ccc([N+](=O)[O-])cc5)c4[C@]2(CCN3C)CC1=O | 4.37
38 | COC1=C[C@@H]2[C@@H]3Cc4ccc(OC)c(OCc5cn(Cc6ccccc6Cl)nn5)c4[C@]2(CCN3C)CC1=O | 2.39
39 | COC1=C[C@@H]2[C@@H]3Cc4ccc(OC)c(OCc5cn(Cc6ccc(OC)cc6)nn5)c4[C@]2(CCN3C)CC1=O | 3.12
